Assays:
[1] = target: T1, Serine/threonine-protein kinase MAK (Homo sapiens) (UniProt P20794); test: Selectivity interaction (Ambit KINOMEscan and KiNATiv profiling in Jurkat cells) EUB0000090b MAK; format: cell-based; conditions: at 1 µM
T1 sequence (whole entry): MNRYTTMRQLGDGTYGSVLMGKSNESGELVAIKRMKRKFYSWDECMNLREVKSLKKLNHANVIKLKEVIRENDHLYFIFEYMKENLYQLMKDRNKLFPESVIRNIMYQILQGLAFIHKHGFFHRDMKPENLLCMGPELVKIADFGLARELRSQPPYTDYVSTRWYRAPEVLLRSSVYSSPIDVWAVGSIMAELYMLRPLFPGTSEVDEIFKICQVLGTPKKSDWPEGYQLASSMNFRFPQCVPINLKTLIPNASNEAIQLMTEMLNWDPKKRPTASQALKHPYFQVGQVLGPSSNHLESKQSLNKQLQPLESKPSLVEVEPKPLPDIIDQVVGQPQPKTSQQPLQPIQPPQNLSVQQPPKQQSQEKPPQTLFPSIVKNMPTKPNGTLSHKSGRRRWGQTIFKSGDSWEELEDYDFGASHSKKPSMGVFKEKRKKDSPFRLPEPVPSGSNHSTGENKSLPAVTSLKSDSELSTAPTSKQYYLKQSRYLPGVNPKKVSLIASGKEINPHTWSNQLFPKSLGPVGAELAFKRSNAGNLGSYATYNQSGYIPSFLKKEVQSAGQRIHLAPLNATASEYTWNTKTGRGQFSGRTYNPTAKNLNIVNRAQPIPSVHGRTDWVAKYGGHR

[2] = target: High affinity nerve growth factor receptor (Homo sapiens, UniProt P04629); test: Selectivity interaction (Kinase panel (literature)) EUB0001199aCl NTRK1; conditions: at 1 µM
[3] = target: Phosphatidylinositol 4,5-bisphosphate 3-kinase catalytic subunit beta isoform (Homo sapiens) (UniProt P42338); test: Selectivity interaction (KinomeScan (DiscoverX)) EUB0000607a PIK3CB; conditions: at 10 µM
Phosphatidylinositol 4,5-bisphosphate 3-kinase catalytic subunit beta isoform (Homo sapiens), sequence (P42338 whole entry, looked up, canonical isoform): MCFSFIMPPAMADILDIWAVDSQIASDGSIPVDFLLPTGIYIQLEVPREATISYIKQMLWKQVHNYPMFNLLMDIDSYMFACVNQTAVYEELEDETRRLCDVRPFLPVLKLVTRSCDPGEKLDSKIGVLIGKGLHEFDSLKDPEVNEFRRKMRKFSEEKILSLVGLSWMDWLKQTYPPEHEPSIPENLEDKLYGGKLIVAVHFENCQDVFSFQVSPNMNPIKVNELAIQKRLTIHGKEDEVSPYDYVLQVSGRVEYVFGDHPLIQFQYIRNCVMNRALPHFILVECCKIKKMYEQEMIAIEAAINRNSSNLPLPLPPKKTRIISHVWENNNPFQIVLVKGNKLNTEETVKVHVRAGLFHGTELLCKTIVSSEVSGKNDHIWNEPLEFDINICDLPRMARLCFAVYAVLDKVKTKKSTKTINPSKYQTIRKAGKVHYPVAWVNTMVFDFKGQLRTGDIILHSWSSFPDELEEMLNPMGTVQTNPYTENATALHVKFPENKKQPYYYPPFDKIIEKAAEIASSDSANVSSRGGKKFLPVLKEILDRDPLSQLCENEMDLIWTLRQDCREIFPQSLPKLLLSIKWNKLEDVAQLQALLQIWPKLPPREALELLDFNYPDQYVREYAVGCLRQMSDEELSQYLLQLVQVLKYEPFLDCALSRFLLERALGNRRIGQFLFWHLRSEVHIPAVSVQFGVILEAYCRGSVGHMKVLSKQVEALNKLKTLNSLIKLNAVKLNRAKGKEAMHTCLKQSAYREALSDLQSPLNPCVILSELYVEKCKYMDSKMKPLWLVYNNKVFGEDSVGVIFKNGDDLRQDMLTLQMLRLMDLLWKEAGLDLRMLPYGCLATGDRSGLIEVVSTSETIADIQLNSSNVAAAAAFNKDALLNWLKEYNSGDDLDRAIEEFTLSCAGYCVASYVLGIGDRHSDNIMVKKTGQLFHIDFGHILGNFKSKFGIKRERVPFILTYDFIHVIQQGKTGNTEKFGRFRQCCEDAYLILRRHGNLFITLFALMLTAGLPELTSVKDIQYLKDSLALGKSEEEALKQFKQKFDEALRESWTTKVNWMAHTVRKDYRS

[4] = target: Serine/threonine-protein kinase 10 (Homo sapiens) (UniProt O94804); test: Selectivity interaction (KinomeScan (DiscoverX)) EUB0001619a STK10; conditions: at 1 µM
[5] = target: Ephrin type-A receptor 7 (Homo sapiens) (UniProt Q15375); test: Selectivity interaction (KinomeScan (DiscoverX)) EUB0001619a EPHA7; conditions: at 1 µM
Ephrin type-A receptor 7 (Homo sapiens), sequence (Q15375 28-998 limits assumed): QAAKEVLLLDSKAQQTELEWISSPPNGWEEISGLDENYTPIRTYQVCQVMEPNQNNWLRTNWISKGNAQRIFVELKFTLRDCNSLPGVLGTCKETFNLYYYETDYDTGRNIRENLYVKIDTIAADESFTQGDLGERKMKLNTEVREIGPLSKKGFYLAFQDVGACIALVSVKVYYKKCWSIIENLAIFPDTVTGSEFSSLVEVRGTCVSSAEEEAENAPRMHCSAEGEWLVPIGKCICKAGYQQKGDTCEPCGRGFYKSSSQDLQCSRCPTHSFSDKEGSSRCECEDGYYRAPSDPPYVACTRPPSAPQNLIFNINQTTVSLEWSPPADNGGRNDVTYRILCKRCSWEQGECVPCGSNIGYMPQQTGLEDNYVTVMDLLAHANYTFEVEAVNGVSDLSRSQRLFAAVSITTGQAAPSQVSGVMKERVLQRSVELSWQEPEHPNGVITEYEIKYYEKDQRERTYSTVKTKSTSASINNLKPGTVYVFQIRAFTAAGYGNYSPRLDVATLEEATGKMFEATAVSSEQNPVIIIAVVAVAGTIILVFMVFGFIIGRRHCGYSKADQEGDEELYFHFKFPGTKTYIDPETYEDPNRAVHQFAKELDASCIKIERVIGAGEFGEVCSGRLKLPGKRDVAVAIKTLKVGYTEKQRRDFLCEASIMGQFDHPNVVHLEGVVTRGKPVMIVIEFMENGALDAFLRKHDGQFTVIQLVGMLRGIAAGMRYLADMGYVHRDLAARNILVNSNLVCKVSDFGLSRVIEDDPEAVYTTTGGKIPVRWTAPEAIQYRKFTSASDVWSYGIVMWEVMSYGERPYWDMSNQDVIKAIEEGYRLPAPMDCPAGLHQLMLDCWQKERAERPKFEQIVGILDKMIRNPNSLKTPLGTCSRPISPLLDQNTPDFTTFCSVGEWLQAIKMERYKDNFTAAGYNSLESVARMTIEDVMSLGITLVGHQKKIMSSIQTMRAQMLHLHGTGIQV

[6] = target: Atypical kinase COQ8A, mitochondrial (Homo sapiens, UniProt Q8NI60); test: Selectivity interaction (KinomeScan (DiscoverX)) EUB0000045b ADCK3
Atypical kinase COQ8A, mitochondrial, sequence (Q8NI60 163-647 limits assumed): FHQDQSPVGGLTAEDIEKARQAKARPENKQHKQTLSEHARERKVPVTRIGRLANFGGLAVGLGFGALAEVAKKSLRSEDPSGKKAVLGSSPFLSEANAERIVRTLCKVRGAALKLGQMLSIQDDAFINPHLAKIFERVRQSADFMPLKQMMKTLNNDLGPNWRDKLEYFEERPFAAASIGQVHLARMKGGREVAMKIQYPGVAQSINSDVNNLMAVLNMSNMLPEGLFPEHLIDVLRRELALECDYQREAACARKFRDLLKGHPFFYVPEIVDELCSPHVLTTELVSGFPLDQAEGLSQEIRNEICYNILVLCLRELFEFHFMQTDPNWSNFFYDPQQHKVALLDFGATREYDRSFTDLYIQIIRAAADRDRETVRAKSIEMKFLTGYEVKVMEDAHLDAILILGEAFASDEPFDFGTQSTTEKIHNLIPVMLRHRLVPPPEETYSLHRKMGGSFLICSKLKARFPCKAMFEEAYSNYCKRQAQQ

[7] = target: Serine/threonine-protein kinase MARK1 (Homo sapiens) (UniProt Q9P0L2); test: Selectivity interaction (ActivX KiNativ screen (kinase selectivity in THP-1 cell lysates)) EUB0000639a MARK1; format: subcellular; conditions: lysate
Serine/threonine-protein kinase MARK1 (Homo sapiens), sequence (Q9P0L2 whole entry, looked up): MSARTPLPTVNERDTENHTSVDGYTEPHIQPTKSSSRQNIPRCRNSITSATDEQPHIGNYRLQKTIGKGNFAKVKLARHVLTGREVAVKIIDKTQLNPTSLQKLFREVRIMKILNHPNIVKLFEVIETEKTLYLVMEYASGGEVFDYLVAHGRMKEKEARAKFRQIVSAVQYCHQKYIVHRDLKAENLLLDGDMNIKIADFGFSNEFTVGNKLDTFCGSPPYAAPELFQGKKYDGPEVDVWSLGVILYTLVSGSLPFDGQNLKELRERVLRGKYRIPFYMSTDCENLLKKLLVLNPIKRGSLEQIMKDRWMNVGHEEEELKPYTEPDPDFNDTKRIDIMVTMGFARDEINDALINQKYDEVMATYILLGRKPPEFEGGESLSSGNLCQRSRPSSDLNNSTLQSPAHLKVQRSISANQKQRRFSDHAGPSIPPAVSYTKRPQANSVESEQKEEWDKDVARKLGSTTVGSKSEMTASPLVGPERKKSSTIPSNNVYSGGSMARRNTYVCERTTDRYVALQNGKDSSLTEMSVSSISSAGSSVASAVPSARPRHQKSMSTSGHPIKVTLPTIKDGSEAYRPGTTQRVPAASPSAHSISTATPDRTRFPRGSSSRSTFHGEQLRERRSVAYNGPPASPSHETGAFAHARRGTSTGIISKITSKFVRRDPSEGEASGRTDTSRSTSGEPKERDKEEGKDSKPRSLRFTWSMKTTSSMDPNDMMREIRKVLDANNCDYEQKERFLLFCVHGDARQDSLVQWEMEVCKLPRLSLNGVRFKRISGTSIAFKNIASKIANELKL

[8] = target: Ribosomal protein S6 kinase alpha-1 (Homo sapiens, UniProt Q15418); test: Selectivity interaction (ActivX KiNativ screen (kinase selectivity in THP-1 cell lysates)) EUB0000639a RPS6KA1; format: subcellular; conditions: lysate
Ribosomal protein S6 kinase alpha-1, sequence (Q15418 whole entry): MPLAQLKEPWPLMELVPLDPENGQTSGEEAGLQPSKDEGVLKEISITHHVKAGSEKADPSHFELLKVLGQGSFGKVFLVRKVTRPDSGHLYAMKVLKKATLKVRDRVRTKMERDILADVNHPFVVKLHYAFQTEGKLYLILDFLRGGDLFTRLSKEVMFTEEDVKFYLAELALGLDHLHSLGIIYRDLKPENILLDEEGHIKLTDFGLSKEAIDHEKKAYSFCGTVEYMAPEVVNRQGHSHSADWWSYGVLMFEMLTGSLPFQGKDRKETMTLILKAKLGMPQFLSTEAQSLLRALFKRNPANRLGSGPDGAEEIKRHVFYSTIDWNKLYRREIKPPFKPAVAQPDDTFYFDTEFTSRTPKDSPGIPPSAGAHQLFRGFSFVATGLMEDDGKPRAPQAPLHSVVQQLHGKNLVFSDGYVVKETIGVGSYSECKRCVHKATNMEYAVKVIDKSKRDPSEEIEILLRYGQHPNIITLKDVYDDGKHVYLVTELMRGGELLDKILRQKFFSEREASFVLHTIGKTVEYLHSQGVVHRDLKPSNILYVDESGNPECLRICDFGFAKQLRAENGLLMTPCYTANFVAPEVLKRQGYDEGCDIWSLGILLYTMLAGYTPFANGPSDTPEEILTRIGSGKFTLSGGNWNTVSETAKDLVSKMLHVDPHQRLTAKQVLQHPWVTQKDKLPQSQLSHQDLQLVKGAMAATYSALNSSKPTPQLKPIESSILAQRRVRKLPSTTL

[9] = target: T2, Scaffold protein ILK (Homo sapiens) (UniProt Q13418); test: Selectivity interaction (ActivX KiNativ screen (kinase selectivity in THP-1 cell lysates)) EUB0000639a ILK; format: subcellular; conditions: lysate
T2 sequence (whole entry): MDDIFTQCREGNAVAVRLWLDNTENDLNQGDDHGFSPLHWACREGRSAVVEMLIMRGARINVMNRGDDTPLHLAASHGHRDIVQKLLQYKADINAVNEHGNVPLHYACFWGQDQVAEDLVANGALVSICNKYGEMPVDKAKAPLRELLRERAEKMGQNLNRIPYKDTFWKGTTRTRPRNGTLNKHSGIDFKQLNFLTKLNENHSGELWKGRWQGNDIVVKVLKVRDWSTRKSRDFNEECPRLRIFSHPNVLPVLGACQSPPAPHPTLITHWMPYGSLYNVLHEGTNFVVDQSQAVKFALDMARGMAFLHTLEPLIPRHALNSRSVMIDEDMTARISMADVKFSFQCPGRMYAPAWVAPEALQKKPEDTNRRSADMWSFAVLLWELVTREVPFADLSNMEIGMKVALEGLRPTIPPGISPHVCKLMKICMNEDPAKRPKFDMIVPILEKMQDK

[10] = target: DNA-dependent protein kinase catalytic subunit (Homo sapiens) (UniProt P78527); test: Selectivity interaction (ProQinase) EUB0000171b PRKDC
[11] = target: Serine/threonine-protein kinase PAK 4 (Homo sapiens, UniProt O96013); test: Selectivity interaction (Kinase panel (Z-LYTE Assay)) EUB0001632a PAK4; conditions: at 10 µM
Serine/threonine-protein kinase PAK 4, sequence (O96013 whole entry, looked up): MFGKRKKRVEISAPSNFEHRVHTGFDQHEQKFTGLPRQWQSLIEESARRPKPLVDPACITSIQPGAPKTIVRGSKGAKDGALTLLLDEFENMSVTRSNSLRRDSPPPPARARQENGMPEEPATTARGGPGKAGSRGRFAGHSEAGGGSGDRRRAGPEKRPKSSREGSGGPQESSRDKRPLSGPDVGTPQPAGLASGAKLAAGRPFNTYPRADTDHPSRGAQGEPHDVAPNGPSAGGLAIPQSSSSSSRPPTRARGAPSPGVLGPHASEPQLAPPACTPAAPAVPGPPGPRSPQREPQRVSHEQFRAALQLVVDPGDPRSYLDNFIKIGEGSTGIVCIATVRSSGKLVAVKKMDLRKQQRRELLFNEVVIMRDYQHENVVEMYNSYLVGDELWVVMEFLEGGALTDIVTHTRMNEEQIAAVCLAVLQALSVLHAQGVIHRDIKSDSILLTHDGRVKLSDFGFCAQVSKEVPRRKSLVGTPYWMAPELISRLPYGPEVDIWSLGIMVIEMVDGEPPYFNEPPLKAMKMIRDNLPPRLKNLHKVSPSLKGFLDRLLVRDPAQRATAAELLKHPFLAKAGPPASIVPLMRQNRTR

[12] = target: Tyrosine-protein kinase Lck (Homo sapiens, UniProt P06239); test: Selectivity interaction (Kinase screening (Upstate/Millipore)) EUB0000604a LCK

CN(C)C/C=C/C(=O)Nc1ccc(C(=O)N2CCCC(Nc3ncc(Cl)c(-c4c[nH]c5ccccc45)n3)C2)cc1 (stereo unspecified)
% of control [1]: 63%

CN1Cc2nccc(-c3cn(C)nc3-c3ccc(F)cc3)c2C1=O
% of inhibition [2]: 12%

CNC(=O)Nc1ccc(-c2nc(N3CC4CCC(C3)O4)c3cnn(C4CCC5(CC4)OCCO5)c3n2)cc1
% of control [3]: 46%

N#Cc1cccc(-c2c[nH]c3ncnc(N4CCOCC4)c23)c1
% of control [4]: 33% | % of control [5]: 100%

C=CC(=O)Nc1cc(-n2c(=O)ccc3cnc4ccc(-c5ccc(NS(C)(=O)=O)cc5)cc4c32)ccc1C
% of control ([6]; at 1 µM): 100% | % of control ([6]; at 10 µM): 82%

CC[C@@H]1[C@H](F)C(=O)N[C@@H]1COc1nccc2cc(C(N)=O)c(OC)cc12 [ZIMLOVISERTIB]
% of inhibition ([7]; at 0.01 µM): -5.4% | % of inhibition ([7]; at 0.04 µM): 8.3% | % of inhibition ([7]; at 0.2 µM): 8.4% | % of inhibition ([7]; at 1 µM): 26.6% | % of inhibition ([7]; at 5 µM): 51.5% | % of inhibition ([8]; at 0.01 µM): 18.6% | % of inhibition ([8]; at 0.04 µM): 18% | % of inhibition ([8]; at 0.2 µM): 14.6% | % of inhibition ([8]; at 1 µM): 14.7% | % of inhibition ([8]; at 5 µM): 7.3% | % of inhibition ([9]; at 0.01 µM): 6.6% | % of inhibition ([9]; at 0.04 µM): 1.4% | % of inhibition ([9]; at 0.2 µM): 11.2% | % of inhibition ([9]; at 1 µM): 7.8% | % of inhibition ([9]; at 5 µM): -3.7%

C=CC(=O)Nc1cccc(C(=O)Nc2ccc(Nc3cc(-c4[nH]c(SC)nc4C)ccn3)cc2)c1
% of control ([10]; at 1 µM): 92% | % of control ([10]; at 5 µM): 103%

Cn1cc(-n2cnc3c(NCc4nc5cc(Cl)c(Cl)cc5[nH]4)nc(N4CCOCC4)nc32)cn1
% of control [11]: 7.15%

Cc1cnc(Nc2ccc(F)cc2Cl)nc1-c1c[nH]c(C(=O)N[C@H](CO)c2cccc(Cl)c2)c1
% of inhibition [12]: 3%

From ChEMBL document CHEMBL5465560, “Selectivity Literature for EUbOPEN Chemogenomic Library” (2024)
